How the values were obtained:
[1] = tested on: women with laparoscopically diagnosed endometriosis; conditions: in vivo
Protocol: (§1) The efficacy of each therapy was evaluated by means of, among other methods, a pain scale (visual analog scale, VAS) form filled out by the patient.
The effect of the two therapies on bone metabolism was studied in a subgroup of patients.

[2] = tested on: women with laparoscopically diagnosed endometriosis; assay: Clinical study in endometriosis: pain scale (visual analog scale, VAS); format: in vivo; conditions: end of 6-month treatment; for pain reduction on visual analog scale (VAS) compared to the pain experienced at the beginning of therapy: DNG 2 mg/d orally, LA 3.75 mg s.c. every 4 weeks
Protocol: as §1

[3] = tested on: women with laparoscopically diagnosed endometriosis; conditions: in vivo; remark: listed apart in the source
[4] = tested on: subjects affected with endometriosis; conditions: 2 mg of dienogest per day for 24 weeks; cited from earlier work
[5] = tested on: women with laparoscopically diagnosed endometriosis; conditions: in vivo; remark: listed apart in the source
Protocol: as §1

ovulation = conditions: daily dose; as set for the purposes of the invention; cited from earlier work

| change of bone density compared to the beginning of the study [1] | estrogen values, average value at the end of study [3] [pmol/L] | course of hot flash symptomatology during therapy [5] | laboratory parameters for determining bone metabolism [1] | SMILES | statistical analysis of pain reduction versus comparator ([2]; DNG 2 mg/d orally vs LA 3.75 mg s.c. every 4 weeks) | pain reduction on visual analog scale (VAS) compared to the pain experienced at the beginning of therapy [2] [mm] | result of the treatment compared with Danazol or GnRH agonists [4] | ovulation-inhibiting dose (ovulation) [mg] |
| --- | --- | --- | --- | --- | --- | --- | --- | --- |
| +0.25% | 249.9 | reduced | – | C[C@]12CCC3=C4CCC(=O)C=C4CC[C@H]3[C@@H]1CC[C@@]2(O)CC#N [DNG, 17α-cyanomethyl-17-β-hydroxyestra-4,9-dien-3-one] | not inferior to LA | −47.5 | comparable | – |
| −4.0% | 68.5 | increased | increased bone resorption | CCNC(=O)[C@@H]1CCCN1C(=O)[C@H](CCCNC(=N)N)NC(=O)[C@H](CC(C)C)NC(=O)[C@@H](CC(C)C)NC(=O)[C@H](Cc1ccc(O)cc1)NC(=O)[C@H](CO)NC(=O)[C@H](Cc1c[nH]c2ccccc12)NC(=O)[C@H](Cc1c[nH]cn1)NC(=O)[C@@H]1CCC(=O)N1 [LA, leuprorelin acetate] | – | −46.0 | – | – |
| – | – | – | – | CC(=O)O[C@]1(C(C)=O)CC[C@H]2[C@@H]3C=C(Cl)C4=CC(=O)CC[C@]4(C)[C@H]3CC[C@@]21C [chiormadinone acetate, chlormadinone acetate] | – | – | – | 1.7 |
| – | – | – | – | CC(=O)O[C@]1(C(C)=O)CC[C@H]2[C@@H]3C=C(Cl)C4=CC(=O)[C@@H]5C[C@@H]5[C@]4(C)[C@H]3CC[C@@]21C [cyproterone acetate] | – | – | – | 1 |

— patent publication US20110008409A1, “PHARMACEUTICAL PREPARATION CONTAINING A GESTAGEN, AND KIT AND METHOD FOR TREATING ENDOMETRIOSIS USING THE PREPARATION” (priority 2007, published 2011)
